# Measured values from PMC12027946, “Ionic and Non-Ionic Counterparts Based on Bis(Uracilyl)Alkane Moiety with Highest Selectivity Towards Acetylcholinesterase for Protection Against Organophosphate Poisoning and Treating Alzheimer’s Disease” (International Journal of Molecular Sciences, 2025).
# Several values for one entry are separate records, joined by “and”; a condition that tells them apart may be missing. Identical values can stand only once. Like-named read-outs stand apart in the source and are kept apart here.
# Key:
# human AChE [1] = molecular target: T1, human AChE (Homo sapiens, UniProt P22303); assay: In vitro cholinesterase inhibition (Ellman), AChE; format: biochemical; details: Table 2; human AChE; read-out: IC50 AChE
# T1 construct: purchased Sigma-Aldrich
# T1 sequence (P22303 32-614): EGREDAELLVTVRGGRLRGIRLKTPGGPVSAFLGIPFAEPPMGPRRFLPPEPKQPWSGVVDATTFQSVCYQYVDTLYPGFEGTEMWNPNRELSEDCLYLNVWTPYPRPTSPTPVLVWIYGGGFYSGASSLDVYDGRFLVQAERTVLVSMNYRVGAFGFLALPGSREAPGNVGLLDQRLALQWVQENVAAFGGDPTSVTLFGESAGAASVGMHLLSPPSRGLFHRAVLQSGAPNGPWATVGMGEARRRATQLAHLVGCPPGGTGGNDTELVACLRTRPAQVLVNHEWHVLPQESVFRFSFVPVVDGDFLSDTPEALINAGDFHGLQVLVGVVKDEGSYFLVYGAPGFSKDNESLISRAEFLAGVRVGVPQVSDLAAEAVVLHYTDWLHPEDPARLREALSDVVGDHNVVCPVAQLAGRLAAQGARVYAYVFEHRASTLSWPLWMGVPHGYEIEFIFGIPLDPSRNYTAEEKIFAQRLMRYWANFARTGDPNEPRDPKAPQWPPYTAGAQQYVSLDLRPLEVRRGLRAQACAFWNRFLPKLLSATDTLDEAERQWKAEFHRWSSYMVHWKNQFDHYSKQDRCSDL
# Method: (§1) Inhibitory activities of the tested compounds against AChE and BChE were measured according to Ellman et al.. Enzyme-catalysed hydrolysis of ATCHh was carried out at 25 °C in 0.1 M phosphate buffer (pH 8.0) containing 0.25 U AChE, 1 mM ATCHh as substrates, and 0.1 mM of DTNB. In experiments with BuChE, 0.1 M phosphate buffer (pH 7.0) and BuTChh as a substrate were used. The tested compounds were pre-incubated with the enzyme for two minutes prior to the addition of the substrate and the subsequent recording of hydrolysis kinetics. […] A sample without an inhibitor was used as a control (100% cholinesterase activity). A sample without a substrate was used as a blank. Experiments were performed in triplicate.
# BChE from human plasma = molecular target: T2, BChE from human plasma (Homo sapiens, UniProt P06276); assay: In vitro cholinesterase inhibition (Ellman), BuChE; format: biochemical; details: Table 2; human BuChE; read-out: IC50 BuChE
# T2 construct: butyrylcholiesterase from human plasma; purchased Sigma-Aldrich; host or cells: human plasma
# T2 sequence (P06276 29-602): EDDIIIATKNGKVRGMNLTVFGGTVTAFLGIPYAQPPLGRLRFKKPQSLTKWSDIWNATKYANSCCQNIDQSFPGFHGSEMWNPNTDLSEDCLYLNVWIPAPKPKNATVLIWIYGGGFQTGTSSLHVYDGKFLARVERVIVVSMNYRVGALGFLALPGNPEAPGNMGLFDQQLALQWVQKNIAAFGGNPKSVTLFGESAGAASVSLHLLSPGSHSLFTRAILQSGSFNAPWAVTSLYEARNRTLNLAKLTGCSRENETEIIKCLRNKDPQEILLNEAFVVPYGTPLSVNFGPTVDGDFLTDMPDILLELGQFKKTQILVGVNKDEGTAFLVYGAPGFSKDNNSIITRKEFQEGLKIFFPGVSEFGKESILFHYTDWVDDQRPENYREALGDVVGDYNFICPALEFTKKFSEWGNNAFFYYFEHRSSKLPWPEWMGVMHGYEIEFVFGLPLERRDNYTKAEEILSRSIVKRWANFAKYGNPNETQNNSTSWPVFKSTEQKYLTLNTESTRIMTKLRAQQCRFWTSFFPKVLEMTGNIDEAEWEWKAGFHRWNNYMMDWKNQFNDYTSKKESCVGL
# Method: as §1
# human AChE [2] = molecular target: T1, human AChE; assay: Inhibition constants (Dixon and Cornish–Bowden plots), AChE; format: biochemical
# Method: Experiments were performed using four different concentrations of ATCh as a substrate for AChE, and with BuTCh as a substrate for BuChE. According to the analysis of Dixon and Cornish–Bowden plots for bisuracil 2b, AChE and BuChE inhibition is of a mixed type characterised both by competitive inhibition (Kci) and uncompetitive inhibition (Kui) components. For AChE, Kci was determined to be 55.7 ± 8.1 pM while Kui = 156 ± 18 pM (Figure 3A,B), and Kci = 0.13 ± 0.02 mM while Kui = 0.7 ± 0.06 mM for BuChE (Figure 3C,D). Inhibition of AChE and BuChE by bisuracil 3c was of a mixed type. For the AChE constant, Kci was 0.7 ± 0.04 nM while Kui 4.45 ± 1.76 nM (Figure 4A,B); for the BuChE constant, Kci = 0.04 ± 0.007 мM while Kui = 0.68 ± 0.08 мM (Figure 4C,D).
# A UV-1800 Shimadzu (Shimadzu Co., Kyoto, Japan) spectrophotometer was utilised to conduct the measurements. The final enzyme concentration in the assays was in the picomolar range. In order to ascertain the levels of spontaneous hydrolysis of the enzyme and substrate in the absence of an inhibitor, controls were performed for each substrate concentration. The change in absorption was then recorded over a period of three minutes. The inhibition constants were determined from a Dixon plot and Cornish–Bowden transformation.
# [3] = Acute toxicity, single i.p. injection; details: CD-1, mouse, in vivo, ip, mice
# Method: Toxicological experiments were performed using a single i.p. injection of the tested compounds in CD-1 mice weighing 20–25 g. Stock solutions of the tested compounds were diluted in ethanol or water. The final ethanol dose was 100 mg/kg. Nine different doses of the tested compounds were used with 12 mice per dose. Animals were observed 7 days after injection, and symptoms of toxicity were recorded.
# [4] = tested on: scopolamine-induced amnesia in mice; assay: Novel object recognition test, scopolamine-induced amnesia; format: in vivo; details: scopolamine 1.5 mg/kg
# Method: This study explored the ability of bisuracil 3c to counteract scopolamine-induced amnesia in mice, utilising behavioural assessments conducted through the novel object recognition test. […] The induction of amnesia was facilitated by the i.p. injection of scopolamine (1.5 mg/kg) 50 min prior to testing. […]. An equivalent amount of the vehicle was administered to a control group of mice.
# The experiments were carried out on CD1 mice of both sexes weighing 24–25 g. The novel object recognition test was conducted over a period of three days. On the first day, the mice were placed individually into the square testing arena with black walls (50 cm in length, 50 cm in width, 38 cm in height) for 5 min without any objects. On the second day, two identical objects were placed in the central part of the arena, and the mice were allowed to explore the objects for 10 min. Test compounds were administered prior to testing on the second day. The induction of amnesia was facilitated by i.p. injection of scopolamine (1.5 mg/kg) 50 min prior to testing. Tested compounds were administered i.p. 30 min prior to testing. The control group of animals was administered with an equivalent amount of vehicle. On the third day, the mice were presented with a familiar and a novel object for 10 min. The time of exploration of each object by the mice was recorded using a digital camera. After each test, the arena was cleaned with a solution of 70% ethanol. At the end of the test, the preference index (exploration of novel object/total exploration time × 100) was calculated.
# mice = assay: Open-field test; format: in vivo; details: 2b 0.01 mg/kg, 3c 5 mg/kg, i.p.
# Method: The ability of effective doses of bisuracil 2b (0.01 mg/kg) and bisuracil 3c (5 mg/kg) to induce incapacitation was evaluated. Locomotor activity, measured as the total distance travelled, and exploratory behaviour, assessed by the number of rearings (head inclinations) and head dips, were evaluated using the open-field test. Additionally, motor coordination was analysed using the rotarod test, where the ability of mice to stay on the rotating rod was recorded. The compounds were administered i.p. 30 min before testing, while the control group received an equivalent volume of the vehicle.
# To analyse motor function, rotarod and open-field tests were carried out. Mice were randomly divided into 3 groups (n = 12): a control group of mice and groups of mice treated with tested compounds. Tests were conducted 1 h after compound exposure. To assess motor function, mice were first placed on a rotarod treadmill (Ugo Basile, Italy). Rotation speed was fixed at 15 rpm, and the time that each mouse remained on the rod was recorded as the score, with a maximum duration of 300 s per trial. Each mouse underwent 3 trials. After recording the length of time that mice managed to remain on the rotarod (latency to fall), the average of three trials was used for further analysis. Following the rotarod test, motor function was studied in an open field apparatus (Open Science, Krasnogorsk, Russia), as described in [39]. The numbers of rearing and head dips were estimated as indexes of exploratory activity. To assess motor function, the distance travelled in centimetres in the arena was measured, using VideoMot2 software (Version 8.02 (131) 03-07-17 (TSE Systems, Bad Homburg, Germany).
structure (smiles),measurement,setting,value
CCN(CCCCCn1c(=O)ccn(CCCCCn2c(C)cc(=O)n(C)c2=O)c1=O)Cc1ccccc1C#N [3c],IC50,human AChE [1],2.78 nM and 2.8 nM
same,IC50,BChE from human plasma,28000 nM
same,"Kui (uncompetitive inhibition constant), AChE",human AChE [2]; ATCh as substrate,4.45 ± 1.76 nM
same,Ki,"human AChE [2]; ATCh as substrate, read-out: Kci (competitive inhibition constant), AChE",0.7 ± 0.04 nM
same,type of AChE inhibition,human AChE [2]; Dixon and Cornish–Bowden plots,mixed type
same,LD50 at 7 days,"[3]; observed 7 days, read-out: LD50 (median lethal dose)",22.8 mg/kg
same,LD50 at 7 days,[3]; read-out: LD50 95% confidence limits,15 to 28.7 mg/kg
same,effect on the preference index,[4]; 3c 2 mg/kg i.p. 30 min prior to testing,no significant effect
same,increase in the preference for the novel object compared to the scopolamine-treated group,"[4]; 3c 5 mg/kg i.p. 30 min prior to testing, p = 0.01",30.5%
same,distance travelled (open field) vs control group,mice,no significant differences
same,number of rearings or head dips (open field),mice,neither of the tested compounds significantly influenced
